Data taken from patent US8449898B2 (priority 2007, dated 2013).
Where two headings read alike, the source gives them in different places.

How the values were obtained:
[1] = test system: Phytophthora infestans (the causal agent of tomato late blight); experiment: whole plant or invertebrate; assay type: in vivo; conditions: Phytophthora infestans
[2] = test system: Pseudoperonospora cubensis (the causal agent of cucumber downy mildew); experiment: Test B: cucumber downy mildew, preventive spray on cucumber seedlings; assay type: in vivo; conditions: Pseudoperonospora cubensis

With `Cc1cc(C(F)(F)F)nn1CC(=O)N1CCC(c2nc(C3=NOC(c4ccccc4)C3)cs2)CC1` (centres unmarked) [Compound 1, 4-[4-[4,5-dihydro-5-phenyl-3-isoxazolyl]-2-thiazolyl]-1-[[5-methyl-3-(trifluoromethyl)-1H-pyrazol-1-yl]acetyl]piperidine] the pest or weed control at 0.05 ppm ([1]; read-out: TLB Obsd (disease control rating), Table A, Compound 1 alone 0.05 ppm) was 34%, the pest or weed control at 0.1 ppm ([1]; read-out: TLB Obsd (disease control rating), Table A, Compound 1 alone 0.1 ppm) was 78% and the pest or weed control at 0.15 ppm ([1]; read-out: TLB Obsd (disease control rating), Table A, Compound 1 alone 0.15 ppm) was 97%. For the same molecule, the pest or weed control at 0.2 ppm ([1]; read-out: TLB Obsd (disease control rating), Table A, Compound 1 alone 0.2 ppm) was 94%, the pest or weed control at 1 ppm ([1]; read-out: TLB Obsd (disease control rating), Table A, Compound 1 alone 1 ppm) was 100% and the pest or weed control at 0.05 ppm ([1]; read-out: TLB Obsd (disease control rating), Table B, Compound 1 alone 0.05 ppm) was 26%. It also gave a pest or weed control at 0.1 ppm ([1]; read-out: TLB Obsd (disease control rating), Table B, Compound 1 alone 0.1 ppm) of 53%, a pest or weed control at 0.15 ppm ([1]; read-out: TLB Obsd (disease control rating), Table B, Compound 1 alone 0.15 ppm) of 59% and a pest or weed control at 0.2 ppm ([1]; read-out: TLB Obsd (disease control rating), Table B, Compound 1 alone 0.2 ppm) of 56%. It also gave a pest or weed control at 1 ppm ([1]; read-out: TLB Obsd (disease control rating), Table B, Compound 1 alone 1 ppm) of 100%, a pest or weed control at 0.05 ppm ([1]; read-out: TLB Obsd (disease control rating), Table C, Compound 1 alone 0.05 ppm) of 17% and a pest or weed control at 0.1 ppm ([1]; read-out: TLB Obsd (disease control rating), Table C, Compound 1 alone 0.1 ppm) of 17%. For the same molecule, the pest or weed control at 0.15 ppm ([1]; read-out: TLB Obsd (disease control rating), Table C, Compound 1 alone 0.15 ppm) was 57%, the pest or weed control at 0.2 ppm ([1]; read-out: TLB Obsd (disease control rating), Table C, Compound 1 alone 0.2 ppm) was 51% and the pest or weed control at 1 ppm ([1]; read-out: TLB Obsd (disease control rating), Table C, Compound 1 alone 1 ppm) was 99%. The pest or weed control at 0.05 ppm ([1]; read-out: TLB Obsd, Table D, Compound 1 alone at 0.05 ppm) was 32%, the pest or weed control at 0.1 ppm ([1]; read-out: TLB Obsd, Table D, Compound 1 alone at 0.1 ppm) was 52% and the pest or weed control at 0.15 ppm ([1]; read-out: TLB Obsd, Table D, Compound 1 alone at 0.15 ppm) was 90%. The pest or weed control at 0.2 ppm ([1]; read-out: TLB Obsd, Table D, Compound 1 alone at 0.2 ppm) was 67%, the pest or weed control at 1 ppm ([1]; read-out: TLB Obsd, Table D, Compound 1 alone at 1 ppm) was 100% and the pest or weed control at 0.05 ppm ([1]; read-out: TLB Obsd, Table E, Compound 1 alone at 0.05 ppm) was 33%. It also gave a pest or weed control at 0.1 ppm ([1]; read-out: TLB Obsd, Table E, Compound 1 alone at 0.1 ppm) of 75%, a pest or weed control at 0.15 ppm ([1]; read-out: TLB Obsd, Table E, Compound 1 alone at 0.15 ppm) of 92% and a pest or weed control at 0.2 ppm ([1]; read-out: TLB Obsd, Table E, Compound 1 alone at 0.2 ppm) of 90%. The pest or weed control at 1 ppm ([1]; read-out: TLB Obsd, Table E, Compound 1 alone at 1 ppm) was 100%, the pest or weed control at 0.025 ppm ([2]; Compound 1 alone 0.025 ppm, Table H evaluation set, rating 100 = 100% disease control, read-out: CDM Obsd) was 33% and the pest or weed control at 0.025 ppm ([2]; Compound 1 alone 0.025 ppm, Table I evaluation set, read-out: CDM Obsd) was 47%. It also gave a pest or weed control at 0.025 ppm ([2]; Compound 1 alone 0.025 ppm, Table J evaluation set, read-out: CDM Obsd) of 47%, a pest or weed control at 0.025 ppm ([2]; Compound 1 alone 0.025 ppm, Table K evaluation set, read-out: CDM Obsd) of 76% and a pest or weed control at 0.025 ppm ([2]; Compound 1 alone 0.025 ppm, Table L evaluation set, read-out: CDM Obsd) of 51%. For the same molecule, the pest or weed control at 0.05 ppm ([2]; Compound 1 alone 0.05 ppm, Table H evaluation set, read-out: CDM Obsd) was 40%, the pest or weed control at 0.05 ppm ([2]; Compound 1 alone 0.05 ppm, Table I evaluation set, read-out: CDM Obsd) was 47% and the pest or weed control at 0.05 ppm ([2]; Compound 1 alone 0.05 ppm, Table J evaluation set, read-out: CDM Obsd) was 47%. The pest or weed control at 0.05 ppm ([2]; Compound 1 alone 0.05 ppm, Table K evaluation set, read-out: CDM Obsd) was 92%, the pest or weed control at 0.05 ppm ([2]; Compound 1 alone 0.05 ppm, Table L evaluation set, read-out: CDM Obsd) was 51% and the pest or weed control at 0.075 ppm ([2]; Compound 1 alone 0.075 ppm, Table H evaluation set, read-out: CDM Obsd) was 40%. It also gave a pest or weed control at 0.075 ppm ([2]; Compound 1 alone 0.075 ppm, Table I evaluation set, read-out: CDM Obsd) of 47%, a pest or weed control at 0.075 ppm ([2]; Compound 1 alone 0.075 ppm, Table J evaluation set, read-out: CDM Obsd) of 47% and a pest or weed control at 0.075 ppm ([2]; Compound 1 alone 0.075 ppm, Table K evaluation set, read-out: CDM Obsd) of 89%. For the same molecule, the pest or weed control at 0.075 ppm ([2]; Compound 1 alone 0.075 ppm, Table L evaluation set, read-out: CDM Obsd) was 51%, the pest or weed control at 0.1 ppm ([2]; Compound 1 alone 0.1 ppm, Table H evaluation set, read-out: CDM Obsd) was 76% and the pest or weed control at 0.1 ppm ([2]; Compound 1 alone 0.1 ppm, Table I evaluation set, read-out: CDM Obsd) was 57%. For the same molecule, the pest or weed control at 0.1 ppm ([2]; Compound 1 alone 0.1 ppm, Table J evaluation set, read-out: CDM Obsd) was 47%, the pest or weed control at 0.1 ppm ([2]; Compound 1 alone 0.1 ppm, Table K evaluation set, read-out: CDM Obsd) was 98% and the pest or weed control at 0.1 ppm ([2]; Compound 1 alone 0.1 ppm, Table L evaluation set, read-out: CDM Obsd) was 98%. It also gave a pest or weed control at 0.125 ppm ([2]; Compound 1 alone 0.125 ppm, Table H evaluation set, read-out: CDM Obsd) of 81%, a pest or weed control at 0.125 ppm ([2]; Compound 1 alone 0.125 ppm, Table I evaluation set, read-out: CDM Obsd) of 57% and a pest or weed control at 0.125 ppm ([2]; Compound 1 alone 0.125 ppm, Table J evaluation set, read-out: CDM Obsd) of 47%. For the same molecule, the pest or weed control at 0.125 ppm ([2]; Compound 1 alone 0.125 ppm, Table K evaluation set, read-out: CDM Obsd) was 99%, the pest or weed control at 0.125 ppm ([2]; Compound 1 alone 0.125 ppm, Table L evaluation set, read-out: CDM Obsd) was 81% and the pest or weed control at 0.05 ppm ([2]; Table A, Compound 1 alone 0.05 ppm, read-out: CDM Obsd (disease control rating)) was 88%. The pest or weed control at 0.1 ppm ([2]; Table A, Compound 1 alone 0.1 ppm, read-out: CDM Obsd (disease control rating)) was 95%, the pest or weed control at 0.15 ppm ([2]; Table A, Compound 1 alone 0.15 ppm, read-out: CDM Obsd (disease control rating)) was 100% and the pest or weed control at 0.2 ppm ([2]; Table A, Compound 1 alone 0.2 ppm, read-out: CDM Obsd (disease control rating)) was 100%. For the same molecule, the pest or weed control at 1 ppm ([2]; Table A, Compound 1 alone 1 ppm, read-out: CDM Obsd (disease control rating)) was 100%, the pest or weed control at 0.05 ppm ([2]; Table B, Compound 1 alone 0.05 ppm, read-out: CDM Obsd (disease control rating)) was 64% and the pest or weed control at 0.1 ppm ([2]; Table B, Compound 1 alone 0.1 ppm, read-out: CDM Obsd (disease control rating)) was 86%. The pest or weed control at 0.15 ppm ([2]; Table B, Compound 1 alone 0.15 ppm, read-out: CDM Obsd (disease control rating)) was 85%, the pest or weed control at 0.2 ppm ([2]; Table B, Compound 1 alone 0.2 ppm, read-out: CDM Obsd (disease control rating)) was 92% and the pest or weed control at 1 ppm ([2]; Table B, Compound 1 alone 1 ppm, read-out: CDM Obsd (disease control rating)) was 100%. It also gave a pest or weed control at 0.05 ppm ([2]; Table C, Compound 1 alone 0.05 ppm, read-out: CDM Obsd (disease control rating)) of 77%, a pest or weed control at 0.1 ppm ([2]; Table C, Compound 1 alone 0.1 ppm, read-out: CDM Obsd (disease control rating)) of 86% and a pest or weed control at 0.15 ppm ([2]; Table C, Compound 1 alone 0.15 ppm, read-out: CDM Obsd (disease control rating)) of 95%. The pest or weed control at 0.2 ppm ([2]; Table C, Compound 1 alone 0.2 ppm, read-out: CDM Obsd (disease control rating)) was 100%, the pest or weed control at 1 ppm ([2]; Table C, Compound 1 alone 1 ppm, read-out: CDM Obsd (disease control rating)) was 100% and the pest or weed control at 0.05 ppm ([2]; Table D, Compound 1 alone at 0.05 ppm, read-out: CDM Obsd) was 64%. For the same molecule, the pest or weed control at 0.1 ppm ([2]; Table D, Compound 1 alone at 0.1 ppm, read-out: CDM Obsd) was 77%, the pest or weed control at 0.15 ppm ([2]; Table D, Compound 1 alone at 0.15 ppm, read-out: CDM Obsd) was 86% and the pest or weed control at 0.2 ppm ([2]; Table D, Compound 1 alone at 0.2 ppm, read-out: CDM Obsd) was 93%. The pest or weed control at 1 ppm ([2]; Table D, Compound 1 alone at 1 ppm, read-out: CDM Obsd) was 100%, the pest or weed control at 0.025 ppm ([2]; Table F, Compound 1 alone at 0.025 ppm, read-out: CDM Obsd) was 40% and the pest or weed control at 0.05 ppm ([2]; Table F, Compound 1 alone at 0.05 ppm, read-out: CDM Obsd) was 68%. For the same molecule, the pest or weed control at 0.075 ppm ([2]; Table F, Compound 1 alone at 0.075 ppm, read-out: CDM Obsd) was 39%, the pest or weed control at 0.1 ppm ([2]; Table F, Compound 1 alone at 0.1 ppm, read-out: CDM Obsd) was 47% and the pest or weed control at 0.125 ppm ([2]; Table F, Compound 1 alone at 0.125 ppm, read-out: CDM Obsd) was 58%. The pest or weed control at 0.025 ppm ([2]; Table G, Compound 1 alone at 0.025 ppm, read-out: CDM Obsd) was 26%, the pest or weed control at 0.05 ppm ([2]; Table G, Compound 1 alone at 0.05 ppm, read-out: CDM Obsd) was 26% and the pest or weed control at 0.075 ppm ([2]; Table G, Compound 1 alone at 0.075 ppm, read-out: CDM Obsd) was 47%. The pest or weed control at 0.1 ppm ([2]; Table G, Compound 1 alone at 0.1 ppm, read-out: CDM Obsd) was 47% and the pest or weed control at 0.125 ppm ([2]; Table G, Compound 1 alone at 0.125 ppm, read-out: CDM Obsd) was 68%.
